Measured values published in patent US4364958A, “1-Substituted-3-cycloalkyl-sulfonyl-pyrrolidine-2,5-dione derivatives and fungicidal compositions thereof” (Chinoin Gyogyszer es Vegyeszeti Termekek Gyara Rt., priority 1979, dated 1982).
Values after ≈ are worked out from the molar mass of the structure shown. Where two headings read alike, the source gives them in different places.

Tests used:
Experiment in all cases: minimal inhibitory concentration in Sabouraud medium
Format in all cases: cell-based
[1] = test system: Epidermophyton floccosum OKI/IV.; conditions: Epidermophyton floccosum, read-out: minimal inhibitory concentration
Excerpt: Epidermophyton floccosum OKI/IV.
(§1) As a medium Saboroud medium was employed.

[2] = test system: Trichophyton rubrum CBS.30338; conditions: Trichophyton rubrum
Excerpt: Trichophyton rubrum CBS.30338
as §1

[3] = test system: Penicillium digitatum CBS.31948; conditions: Penicillium digitatum
Excerpt: Penicillium digitatum CBS.31948
as §1

[4] = test system: Saccharomyces cerevisiae OKI.1282; conditions: Saccharomyces cerevisiae
Excerpt: Saccharomyces cerevisiae OKI.1282
as §1

[5] = test system: Sporotrichum schenkii CBS.34035; conditions: Sporotrichum
Excerpt: Sporotrichum schenkii CBS.34035
as §1

[6] = test system: Aspergillus niger CBS.12648; conditions: Aspergillus niger
Excerpt: Aspergillus niger CBS.12648
as §1

Candida albicans CBS.562 = conditions: Candida albicans
Excerpt: Candida albicans CBS.562 "2"
as §1

[7] = test system: Trichophyton mentagrophytes CBS.50148; conditions: Trichophyton mentagrophytes, read-out: minimal inhibitory concentration
Excerpt: Trichophyton mentagrophytes CBS.50148
as §1

Row | MIC ([1]; 72 h) [µg/mL] | MIC ([1]; 144 h) [µg/mL] | MIC ([1]; 288 h) [µg/mL] | MIC ([2]; CBS.30338, 72 h, 72 hours) [µg/mL] | MIC ([2]; CBS.30338, 144 h, 144 hours) [µg/mL] | MIC ([2]; CBS.30338, 288 h, 288 hours) [µg/mL] | MIC ([3]; CBS.31948, 72 h, 72 hours) [µg/mL] | MIC ([3]; CBS.31948, 144 h, 144 hours) [µg/mL] | MIC ([3]; CBS.31948, 288 h, 288 hours) [µg/mL] | MIC ([4]; OKI.1282, 24 h, 24 hours) [µg/mL] | MIC ([4]; OKI.1282, 48 h, 48 hours) [µg/mL] | MIC ([5]; CBS.34035, 72 h, 72 hours) [µg/mL] | MIC ([5]; CBS.34035, 144 h, 144 hours) [µg/mL] | MIC ([5]; CBS.34035, 288 h, 288 hours) [µg/mL] | MIC ([6]; CBS.12648, 72 h, 72 hours) [µg/mL] | MIC ([6]; CBS.12648, 144 h, 144 hours) [µg/mL] | MIC ([6]; CBS.12648, 288 h, 288 hours) [µg/mL] | MIC (Candida albicans CBS.562; CBS.562, 24 h, 24 hours) [µg/mL] | MIC (Candida albicans CBS.562; CBS.562, 48 h, 48 hours) [µg/mL] | MIC ([7]; CBS.50148, 72 h, 72 hours) [µg/mL] | SMILES | other results
1 | 2.5 (≈ 7.03 µM) | 5 (≈ 14.1 µM) | 10 (≈ 28.1 µM) | 2.5 (≈ 7.03 µM) | 10 (≈ 28.1 µM) | 10 (≈ 28.1 µM) | 25 (≈ 70.3 µM) | 50 (≈ 141 µM) | 50 (≈ 141 µM) | 25 (≈ 70.3 µM) | 75 (≈ 211 µM) | 10 (≈ 28.1 µM) | 50 (≈ 141 µM) | 50 (≈ 141 µM) | 50 (≈ 141 µM) | 150 (≈ 422 µM) | 150 (≈ 422 µM) | 50 (≈ 141 µM) | 50 (≈ 141 µM) | 2.5 (≈ 7.03 µM) | O=C1CC(S(=O)(=O)C2CCCCC2)C(=O)N1c1ccccc1Cl (centres unmarked) [1-(2-chlorophenyl)-3-cyclohexyl-sulfonyl-pyrrolidine-2,5-dione] | MIC ([7]; CBS.50148, 144 h, 144 hours): 5 µg/mL (≈ 14.1 µM); MIC ([7]; CBS.50148, 288 h, 288 hours): 5 µg/mL (≈ 14.1 µM)
2 | 5 (≈ 13.6 µM) | 10 (≈ 27.3 µM) | 10 (≈ 27.3 µM) | 5 (≈ 13.6 µM) | 5 (≈ 13.6 µM) | 5 (≈ 13.6 µM) | 25 (≈ 68.2 µM) | 50 (≈ 136 µM) | 50 (≈ 136 µM) | 75 (≈ 205 µM) | 75 (≈ 205 µM) | 25 (≈ 68.2 µM) | 75 (≈ 205 µM) | 75 (≈ 205 µM) | 75 (≈ 205 µM) | 150 (≈ 409 µM) | 150 (≈ 409 µM) | 50 (≈ 136 µM) | 100 (≈ 273 µM) | 2.5 (≈ 6.82 µM) | O=C1CC(S(=O)(=O)C2CCCCC2)C(=O)N1c1cccc([N+](=O)[O-])c1 (centres unmarked) [1-(3-nitrophenyl)-3-cyclohexyl-sulfonyl-pyrrolidine-2,5-dione] | MIC ([7]; CBS.50148, 144 h, 144 hours): 5 µg/mL (≈ 13.6 µM); MIC ([7]; CBS.50148, 288 h, 288 hours): 25 µg/mL (≈ 68.2 µM)
3 | 5 (≈ 14.2 µM) | 25 (≈ 71.1 µM) | 75 (≈ 213 µM) | 10 (≈ 28.5 µM) | 10 (≈ 28.5 µM) | 10 (≈ 28.5 µM) | 100 (≈ 285 µM) | 100 (≈ 285 µM) | 150 (≈ 427 µM) | 25 (≈ 71.1 µM) | 50 (≈ 142 µM) | 5 (≈ 14.2 µM) | 10 (≈ 28.5 µM) | 10 (≈ 28.5 µM) | 75 (≈ 213 µM) | 100 (≈ 285 µM) | 150 (≈ 427 µM) | 50 (≈ 142 µM) | 150 (≈ 427 µM) | 2.5 (≈ 7.11 µM) | COc1ccc(N2C(=O)CC(S(=O)(=O)C3CCCCC3)C2=O)cc1 (centres unmarked) [1-(4-Methoxyphenyl)-3-cyclohexyl-sulfonyl-pyrrolidine-2,5-dione] | MIC ([7]; CBS.50148, 144 h, 144 hours): 75 µg/mL (≈ 213 µM); MIC ([7]; CBS.50148, 288 h, 288 hours): 100 µg/mL (≈ 285 µM)
4 | 25 (≈ 68.8 µM) | 50 (≈ 138 µM) | 75 (≈ 206 µM) | 10 (≈ 27.5 µM) | 25 (≈ 68.8 µM) | 50 (≈ 138 µM) | 75 (≈ 206 µM) | 100 (≈ 275 µM) | 150 (≈ 413 µM) | 25 (≈ 68.8 µM) | 50 (≈ 138 µM) | 5 (≈ 13.8 µM) | 25 (≈ 68.8 µM) | 25 (≈ 68.8 µM) | 75 (≈ 206 µM) | 150 (≈ 413 µM) | 150 (≈ 413 µM) | 50 (≈ 138 µM) | 75 (≈ 206 µM) | 10 (≈ 27.5 µM) | CC(=O)c1ccc(N2C(=O)CC(S(=O)(=O)C3CCCCC3)C2=O)cc1 (centres unmarked) [1-(4-acetylphenyl)-3-cyclohexyl-sulfonyl-pyrrolidine-2,5-dione] | MIC ([7]; CBS.50148, 144 h, 144 hours): 25 µg/mL (≈ 68.8 µM); MIC ([7]; CBS.50148, 288 h, 288 hours): 25 µg/mL (≈ 68.8 µM)
5 | 2.5 (≈ 7.03 µM) | 5 (≈ 14.1 µM) | 10 (≈ 28.1 µM) | 2.5 (≈ 7.03 µM) | 2.5 (≈ 7.03 µM) | 2.5 (≈ 7.03 µM) | 10 (≈ 28.1 µM) | 50 (≈ 141 µM) | 50 (≈ 141 µM) | 10 (≈ 28.1 µM) | 25 (≈ 70.3 µM) | 10 (≈ 28.1 µM) | 25 (≈ 70.3 µM) | 25 (≈ 70.3 µM) | 50 (≈ 141 µM) | 100 (≈ 281 µM) | 100 (≈ 281 µM) | 25 (≈ 70.3 µM) | 75 (≈ 211 µM) | 2.5 (≈ 7.03 µM) | O=C1CC(S(=O)(=O)C2CCCCC2)C(=O)N1c1cccc(Cl)c1 (centres unmarked) [1-(m-chlorphenyl)-3-cyclohexylsulfonyl-pyrrolidine-2,5-dione] | MIC ([7]; CBS.50148, 144 h, 144 hours): 2.5 µg/mL (≈ 7.03 µM); MIC ([7]; CBS.50148, 288 h, 288 hours): 2.5 µg/mL (≈ 7.03 µM)
